Experimental data: US10202347B2, “Compound, production method therefor, and use of said compound” (MICROBIAL CHEMISTRY RESEARCH FOUNDATION, priority 2013, dated 2019)
Read-outs that look alike come from different tables or passages of the source.

Columns and labels:
[1] = test system: Escherichia coli K-12 strain; experiment: Measurement of MIC for Escherichia coli; assay type: cell-based; conditions: K12STRAIN, read-out: MIC Escherichia coli K-12
Description: Each of the above compounds was measured for minimum inhibitory concentration (MIC) for Staphylococcus aureus and Escherichia coli.
Staphylococcus aureus FDA209P strain and Escherichia coli K-12 strain each were cultured under shaking in a nutrient broth medium (polypeptone (product of NIHON PHARMACEUTICAL Co.) 1%, fish extract for bacteria (product of KYOKUTO PHARMACEUTICAL INDUSTRIAL Co.) 1%, and sodium chloride 0.2%) at 37° C. overnight.
After completion of the culturing, the culture was diluted with the nutrient broth medium so that the bacteria were 2×10^6 CFU/mL to 9×10^6 CFU/mL.
Each of the test samples (each of the above compounds, clarithromycin, and ampicillin) was prepared with the nutrient broth medium to have a concentration of 256 mg/L. From this concentration, the test sample was 2-fold diluted serially in 11 steps to 0.125 mg/L.
(§1) The above-diluted culture was added at 50 μL/well to 50 μL/well of the nutrient broth medium containing each of the test samples at the above concentrations, and was statically cultured at 37° C. overnight. After completion of the culturing, the presence or absence of proliferation of each bacterium was visually determined based on turbidity, and the MIC for each bacterial strain was obtained.

[2] = Acute toxicity test (maximum tolerated dose); conditions: female, ICR, mouse, in vivo, iv
Description: ICR mice (female, 4 weeks old, product of Charles River Co.) were bred under the SPF conditions.
One half of the administration dose at which the mice were recognized to be dead or have serious toxicity for the observation period of 2 weeks was defined as the maximum tolerated dose (MTD) in the present experiment.

[3] = test system: H. pylori JCM12095 strain; experiment: Measurement of MIC for H. pylori JCM12095; assay type: cell-based; conditions: Helicobacter pylori, read-out: MIC H. pylori JCM 12095
Description: Each of the above compounds was measured for minimum inhibitory concentration (MIC) for Helicobacter pylori.
Helicobacter pylori JCM12093 strain and H. pylori JCM12095 strain each were statically cultured in a HP medium (brain heart infusion broth (product of Becton, Dickinson Co.) supplemented with 10% fetal bovine serum (product of Life Technologies Co.)) for 144 hours at 37° C. under microaerobic culture conditions (microaerobic conditions (N2:O2:CO2=85:5:10)).
After completion of the culturing, the culture was suspended with the HP medium and diluted so that Helicobacter pylori was 2×10^6 CFU/mL to 9×10^6 CFU/mL.
Each of the test samples (each of the above compounds, clarithromycin, and ampicillin) was prepared with the HP medium to have a concentration of 256 mg/L. From this concentration, the test sample was 2-fold diluted serially in 15 steps to 0.0078 mg/L.
as §1, with “HP” for “nutrient broth”, “cultured for 144 hours” for “cultured”, “under microaerobic culture conditions (microaerobic conditions (N2:O2:CO2=85:5:10)).” for “overnight.”

[4] = test system: H. influenza ARD476 strain; experiment: Measurement of MIC for H. influenza ARD476; assay type: cell-based; conditions: Haemophilus influenzae, ARD476STRAIN, read-out: MIC H. influenzae ARD476
Description: (§2) Each of the above compounds was measured for minimum inhibitory concentration (MIC) for Haemophilus influenza.
(§3) Haemophilus influenza T-196 strain and H. influenza ARD476 strain each were statically cultured in a HI medium (Muller Hinton medium (product of Becton, Dickinson Co.) supplemented with 5% Fildes enrichment (product of Becton, Dickinson Co.)) at 37° C. overnight under aerobic conditions containing 5% carbon dioxide gas.
(§4) After completion of the culturing, the culture was suspended with the HI medium and diluted so that each Haemophilus influenza strain was 2×10^6 CFU/mL to 9×10^6 CFU/mL.
(§5) Each of the test samples (each of the above compounds, clarithromycin, and ampicillin) was prepared with the HI medium to have a concentration of 256 mg/L. From this concentration, the test sample was 2-fold diluted serially in 11 steps to 0.125 mg/L.
(§6) The above-diluted culture was added at 50 μL/well to 50 μL/well of the HI medium containing each of the test samples at the above concentrations, and was statically cultured for 18 hours at 37° C. under aerobic conditions containing 5% carbon dioxide gas.
(§7) After completion of the culturing, the presence or absence of proliferation of each bacterium was visually determined based on turbidity, and the MIC for each bacterial strain was obtained.

[5] = test system: Haemophilus influenza T-196 strain; experiment: Measurement of MIC for Haemophilus influenza T-196; assay type: cell-based; conditions: read-out: MIC Haemophilus influenzae T-196
Description: as §2, §3, §4, §5, §6, §7

[6] = test system: human stomach cancer cells MKN-74; experiment: Cell proliferation test, monoculture test (GFP fluorescence); assay type: cell-based
Description: Human stomach cancer cells MKN-74 (Riken Cell Bank) were cultured at 37° C. and 5% CO2 in DMEM supplemented with 10% FBS (product of GIBCO Co.), 100 units/mL penicillin G (product of Invitrogen Co.), and 100 μg/mL streptomycin (product of Invitrogen Co.).
The above cancer cells were allowed to undergo gene transfer of Green fluorescence protein (GFP) expression vector, pEGFP-C1 (product of BD Biosciences Co.) using the Lipofectamine reagent (product of Invitrogen Co.), to thereby clone cells stably expressing GFP.
Only DMEM containing 1% dialyzed serum, 5 μg/mL insulin, 5 μg/mL transferrine (product of Wako Pure Chemical Industries Co.), and 1.4 μM hydrocortisone (product of Sigma Co.) was placed in a 96-well plate at 0.1 mL/well, and respective evaluation samples (the compounds expressed by Structural Formulas (1) to (13)) were added thereto at respective concentrations, followed by maintaining at 37° C. and 5% CO2 for 2 days.
Next, the above human stomach cancer cells MKN-74 were dispersed in DMEM at 5×10^5 cells/mL, and were placed in the above plate at 10 μL/well, followed by further coculturing at 37° C. and 5% CO2 for 3 days.
Measurement of cell proliferation rates in the above coculture test and monoculture test was performed in the following manner.
The medium was removed from the wells of the above plate, and a cytolysis liquid (10 mM Tris-HCl [pH 7.4], 150 mM NaCl, 0.9 mM CaCl2, and 1% Triton X-100) was added thereto at 0.1 mL/well to lyse the cells. The fluorescence intensity of GFP was measured at an excitation wavelength of 485 nm and a fluorescence wavelength of 538 nm, and the cell proliferation rates were calculated from the following formula. Cell proliferation rate (%)=(Fluorescence intensity in the presence of the evaluation sample/Fluorescence intensity in the absence of the evaluation sample)×100

[7] = nutrient broth medium, 37° C. overnight
[8] = intravenous administration, ICR mice, observed for 2 weeks, one half of the dose with death or serious toxicity, read-out: MTD
[9] = HI medium, 18 hours, 37° C., 5% carbon dioxide
[10] = JCM12095, HP medium, 144 hours, 37° C., microaerobic
[11] = monoculture test, MKN-74 alone, cell proliferation rate, average of duplicate, read-out: Mono IC50

| SMILES | MIC [1, 7] [µg/mL] | MTD at 2 weeks [2, 8] [mg/kg] | MIC ([3]; JCM12095, 144 h) [µg/mL] | MIC [4, 9] [µg/mL] | MIC [5, 9] [µg/mL] | IC50 ([6]; MKN-74, read-out: Mono IC50) [µg/mL] | MTD at 2 weeks ([2]; MTD) [mg/kg] | MIC [3, 10] [µg/mL] | IC50 [6, 11] [µg/mL] | MIC [1] [µg/mL] | MIC ([4]; 18 h) [µg/mL] | MIC ([5]; 18 h) [µg/mL] |
| --- | --- | --- | --- | --- | --- | --- | --- | --- | --- | --- | --- | --- |
| CCCCCCCc1c(C)c(=O)c2ccccc2n1CN=C(SC)SC [Structural Formula (13)] | > 128 | ≥ 50 | 2 | > 128 | > 128 | 1.36 | – | – | – | – | – | – |
| CCCCCCCc1c(C)c(=O)c2ccccc2n1CNC(=S)SC [Structural Formula (12)] | > 128 | ≥ 50 | 0.06 | > 128 | > 128 | 39.5 | – | – | – | – | – | – |
| Cc1c(CC(C)C)[nH]c2ccccc2c1=O [Structural Formula (4)] | 128 | – | – | 128 | 64 | – | 25 | 0.25 | > 100 | – | – | – |
| CCCCCCCCc1c(C)c(=O)c2ccccc2n1CC(=O)OC [Structural Formula (5)] | > 128 | – | – | > 128 | > 128 | – | 6.25 | 2 | > 100 | – | – | – |
| CCCCCCCc1c(C)c(=O)c2ccccc2n1CN=C=S [Structural Formula (11)] | – | 6.25 | – | – | – | – | – | 0.016 | 89.5 | > 128 | > 128 | > 128 |
| CCCCCCCCc1c(C)c(=O)c2ccccc2n1CC(=O)O [Structural Formula (6)] | 128 | – | – | 128 | 128 | – | ≥ 50 | 0.25 | 71 | – | – | – |
| CCCCCCCCc1nc2ccccc2c(OCC(=O)O)c1C [Structural Formula (2)] | 128 | – | – | 64 | 64 | – | ≥ 50 | 0.5 | 2.95 | – | – | – |
| Cc1c(CCCC/C=C/C(C)C)[nH]c2ccccc2c1=O [Structural Formula (3)] | > 128 | 1.56 | – | > 128 | > 128 | – | – | 0.016 | > 100 | – | – | – |
